According to patent publication US12479847B2 (DANA-FARBER CANCER INSTITUTE, INC., priority 2019, dated 2025):

Assays:
Test in all cases: KINOMEscan (ScanMAX) kinase profiling
Type in all cases: binding
[1] = molecular target: T1, panel of 468 kinases (Homo sapiens, UniProt O94804); conditions: LOK; 1 μM; read-out: % control
T1 construct: purchased KINOMEscan (ScanMAX) service

[2] = molecular target: T2, panel of 468 kinases (Homo sapiens, UniProt P42336, H1047Y); conditions: PIK3CA(H1047Y); 1 μM; read-out: % control
T2 construct: purchased KINOMEscan (ScanMAX) service

[3] = molecular target: T3, panel of 468 kinases (Homo sapiens, UniProt Q13043); conditions: MST1; 1 μM; read-out: % control
T3 construct: purchased KINOMEscan (ScanMAX) service
T3 sequence (Q13043 1-487): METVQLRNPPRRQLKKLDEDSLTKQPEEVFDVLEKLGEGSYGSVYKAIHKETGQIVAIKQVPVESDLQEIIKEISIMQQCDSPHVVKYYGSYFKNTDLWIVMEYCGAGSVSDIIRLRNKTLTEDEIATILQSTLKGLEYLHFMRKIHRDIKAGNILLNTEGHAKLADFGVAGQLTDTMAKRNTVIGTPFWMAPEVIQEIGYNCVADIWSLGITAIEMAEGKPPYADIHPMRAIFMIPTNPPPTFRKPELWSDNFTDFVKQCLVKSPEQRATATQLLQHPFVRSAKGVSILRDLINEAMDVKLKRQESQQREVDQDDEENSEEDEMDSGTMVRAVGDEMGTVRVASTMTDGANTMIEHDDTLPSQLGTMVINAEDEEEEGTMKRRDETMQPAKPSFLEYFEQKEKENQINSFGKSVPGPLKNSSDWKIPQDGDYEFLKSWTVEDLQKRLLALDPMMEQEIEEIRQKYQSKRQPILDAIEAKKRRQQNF

[4] = molecular target: T4, panel of 468 kinases (Homo sapiens, UniProt Q8NEB9); conditions: VPS34; 1 μM; read-out: % control
T4 construct: purchased KINOMEscan (ScanMAX) service

[5] = molecular target: T5, panel of 468 kinases (Homo sapiens, UniProt Q9H2K8); conditions: TAOK3; 1 μM; read-out: % control
T5 construct: purchased KINOMEscan (ScanMAX) service
T5 sequence (Q9H2K8 1-898): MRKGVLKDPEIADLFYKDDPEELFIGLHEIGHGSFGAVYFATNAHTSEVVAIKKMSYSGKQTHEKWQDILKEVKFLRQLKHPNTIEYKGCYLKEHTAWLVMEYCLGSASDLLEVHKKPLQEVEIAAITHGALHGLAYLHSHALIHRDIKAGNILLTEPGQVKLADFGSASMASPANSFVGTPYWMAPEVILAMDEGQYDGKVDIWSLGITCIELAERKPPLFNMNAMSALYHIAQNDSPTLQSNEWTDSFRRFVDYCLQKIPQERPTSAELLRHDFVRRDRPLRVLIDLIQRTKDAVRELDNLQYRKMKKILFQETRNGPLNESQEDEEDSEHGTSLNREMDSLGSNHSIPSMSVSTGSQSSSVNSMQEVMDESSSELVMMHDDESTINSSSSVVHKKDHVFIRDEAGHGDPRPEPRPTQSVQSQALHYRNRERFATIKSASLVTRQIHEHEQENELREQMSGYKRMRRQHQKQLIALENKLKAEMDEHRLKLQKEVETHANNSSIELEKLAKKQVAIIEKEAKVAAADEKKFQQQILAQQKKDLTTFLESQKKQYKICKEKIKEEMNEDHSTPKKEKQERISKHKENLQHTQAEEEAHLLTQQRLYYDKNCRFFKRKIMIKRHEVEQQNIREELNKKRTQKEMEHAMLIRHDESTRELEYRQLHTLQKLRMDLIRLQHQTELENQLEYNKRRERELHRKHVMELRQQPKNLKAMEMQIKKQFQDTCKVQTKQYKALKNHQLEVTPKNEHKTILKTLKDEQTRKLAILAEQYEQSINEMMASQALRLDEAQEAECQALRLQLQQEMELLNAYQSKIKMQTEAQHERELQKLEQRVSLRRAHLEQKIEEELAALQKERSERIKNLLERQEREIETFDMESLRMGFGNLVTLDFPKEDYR

[6] = molecular target: T6, panel of 468 kinases (Homo sapiens, UniProt Q9H422); conditions: HIPK3; 1 μM; read-out: % control
T6 construct: purchased KINOMEscan (ScanMAX) service

[7] = molecular target: T7, panel of 468 kinases (Homo sapiens, UniProt Q9HAZ1); conditions: CLK4; 1 μM; read-out: % control
T7 construct: purchased KINOMEscan (ScanMAX) service

[8] = molecular target: T8, panel of 468 kinases (Homo sapiens, UniProt Q9NWZ3); conditions: IRAK4; 1 μM; read-out: % control
T8 construct: purchased KINOMEscan (ScanMAX) service
T8 sequence (Q9NWZ3 1-460): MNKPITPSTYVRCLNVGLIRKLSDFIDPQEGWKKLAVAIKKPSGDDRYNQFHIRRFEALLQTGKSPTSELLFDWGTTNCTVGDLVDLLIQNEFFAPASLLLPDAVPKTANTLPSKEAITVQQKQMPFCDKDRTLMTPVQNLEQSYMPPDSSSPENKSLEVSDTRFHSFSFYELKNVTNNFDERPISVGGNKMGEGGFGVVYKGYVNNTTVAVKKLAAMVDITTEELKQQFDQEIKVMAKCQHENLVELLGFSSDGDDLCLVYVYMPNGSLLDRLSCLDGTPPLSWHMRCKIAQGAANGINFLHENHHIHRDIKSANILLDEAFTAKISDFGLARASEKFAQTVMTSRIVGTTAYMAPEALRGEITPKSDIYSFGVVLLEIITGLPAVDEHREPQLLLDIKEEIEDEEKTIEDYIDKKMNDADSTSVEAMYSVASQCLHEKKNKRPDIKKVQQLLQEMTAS

[9] = molecular target: T9, panel of 468 kinases (Homo sapiens, UniProt Q9P286); conditions: PAK7; 1 μM; read-out: % control
T9 construct: purchased KINOMEscan (ScanMAX) service
T9 sequence (Q9P286 whole entry): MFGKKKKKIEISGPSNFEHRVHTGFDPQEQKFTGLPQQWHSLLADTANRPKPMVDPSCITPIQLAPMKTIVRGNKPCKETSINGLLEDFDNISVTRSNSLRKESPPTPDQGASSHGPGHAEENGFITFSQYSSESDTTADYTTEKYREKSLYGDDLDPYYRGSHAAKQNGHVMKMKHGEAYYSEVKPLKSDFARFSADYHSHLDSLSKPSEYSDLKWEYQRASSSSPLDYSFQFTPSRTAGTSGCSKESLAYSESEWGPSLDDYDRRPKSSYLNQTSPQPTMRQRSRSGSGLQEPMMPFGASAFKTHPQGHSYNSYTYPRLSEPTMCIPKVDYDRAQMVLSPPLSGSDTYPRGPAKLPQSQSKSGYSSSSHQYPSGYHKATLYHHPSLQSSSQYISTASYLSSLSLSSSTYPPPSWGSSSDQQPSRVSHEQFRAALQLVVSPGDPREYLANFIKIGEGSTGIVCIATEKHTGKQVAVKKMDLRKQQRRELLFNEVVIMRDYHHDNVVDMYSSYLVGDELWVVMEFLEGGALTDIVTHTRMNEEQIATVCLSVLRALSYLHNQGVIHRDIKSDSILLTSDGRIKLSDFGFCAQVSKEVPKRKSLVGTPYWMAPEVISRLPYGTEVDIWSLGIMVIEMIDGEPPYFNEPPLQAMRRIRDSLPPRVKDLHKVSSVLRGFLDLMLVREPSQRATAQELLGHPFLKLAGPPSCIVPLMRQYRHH

T2 sequence (P42336 whole entry H1047Y): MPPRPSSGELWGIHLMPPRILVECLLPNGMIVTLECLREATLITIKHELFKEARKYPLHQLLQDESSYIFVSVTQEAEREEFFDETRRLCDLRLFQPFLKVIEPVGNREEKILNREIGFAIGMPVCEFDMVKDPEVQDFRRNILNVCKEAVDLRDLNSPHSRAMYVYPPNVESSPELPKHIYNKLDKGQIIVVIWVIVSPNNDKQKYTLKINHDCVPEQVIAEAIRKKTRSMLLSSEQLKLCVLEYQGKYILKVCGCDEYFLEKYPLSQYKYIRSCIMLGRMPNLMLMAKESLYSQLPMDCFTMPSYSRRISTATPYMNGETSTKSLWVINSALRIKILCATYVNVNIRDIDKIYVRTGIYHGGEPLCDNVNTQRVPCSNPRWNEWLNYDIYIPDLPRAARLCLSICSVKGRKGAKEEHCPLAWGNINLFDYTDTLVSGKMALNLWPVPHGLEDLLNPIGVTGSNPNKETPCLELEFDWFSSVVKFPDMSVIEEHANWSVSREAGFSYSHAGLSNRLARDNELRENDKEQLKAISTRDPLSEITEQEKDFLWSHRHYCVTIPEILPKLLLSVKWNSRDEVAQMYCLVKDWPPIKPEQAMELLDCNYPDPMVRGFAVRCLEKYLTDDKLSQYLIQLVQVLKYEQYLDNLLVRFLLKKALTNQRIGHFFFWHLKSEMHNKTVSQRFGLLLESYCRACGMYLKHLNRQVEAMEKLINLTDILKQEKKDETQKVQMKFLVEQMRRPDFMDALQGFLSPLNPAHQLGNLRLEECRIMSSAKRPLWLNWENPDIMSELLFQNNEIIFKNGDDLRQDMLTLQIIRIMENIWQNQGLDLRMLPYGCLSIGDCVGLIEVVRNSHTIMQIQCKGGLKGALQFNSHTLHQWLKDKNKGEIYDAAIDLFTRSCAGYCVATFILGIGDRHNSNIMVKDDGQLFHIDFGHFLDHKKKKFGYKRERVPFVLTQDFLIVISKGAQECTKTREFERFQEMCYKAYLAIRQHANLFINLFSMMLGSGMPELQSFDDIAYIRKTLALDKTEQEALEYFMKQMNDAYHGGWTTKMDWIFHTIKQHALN
T1 sequence (O94804 whole entry): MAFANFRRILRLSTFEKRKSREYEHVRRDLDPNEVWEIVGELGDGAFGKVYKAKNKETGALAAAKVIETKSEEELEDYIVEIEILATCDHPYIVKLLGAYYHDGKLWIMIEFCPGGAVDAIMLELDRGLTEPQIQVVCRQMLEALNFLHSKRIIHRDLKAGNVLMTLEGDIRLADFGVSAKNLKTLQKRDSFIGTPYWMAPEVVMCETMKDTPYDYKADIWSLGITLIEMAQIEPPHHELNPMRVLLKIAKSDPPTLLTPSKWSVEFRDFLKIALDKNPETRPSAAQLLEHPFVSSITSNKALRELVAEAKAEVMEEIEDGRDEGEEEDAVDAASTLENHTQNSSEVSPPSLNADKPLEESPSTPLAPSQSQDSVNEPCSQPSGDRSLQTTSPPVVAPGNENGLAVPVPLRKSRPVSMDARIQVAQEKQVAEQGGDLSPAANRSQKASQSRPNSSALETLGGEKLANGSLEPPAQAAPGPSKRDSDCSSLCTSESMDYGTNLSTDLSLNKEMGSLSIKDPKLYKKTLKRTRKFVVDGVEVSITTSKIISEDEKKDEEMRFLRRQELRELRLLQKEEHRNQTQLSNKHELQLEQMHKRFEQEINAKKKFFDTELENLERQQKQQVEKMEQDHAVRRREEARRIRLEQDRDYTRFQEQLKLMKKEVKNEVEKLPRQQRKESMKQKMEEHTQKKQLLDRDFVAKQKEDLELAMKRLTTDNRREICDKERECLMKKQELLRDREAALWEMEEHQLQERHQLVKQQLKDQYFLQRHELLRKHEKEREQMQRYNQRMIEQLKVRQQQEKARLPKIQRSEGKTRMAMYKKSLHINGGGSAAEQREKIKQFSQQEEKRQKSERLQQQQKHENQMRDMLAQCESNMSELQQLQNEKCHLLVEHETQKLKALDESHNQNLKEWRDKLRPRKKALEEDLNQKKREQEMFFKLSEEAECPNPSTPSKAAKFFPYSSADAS
T6 sequence (Q9H422 whole entry): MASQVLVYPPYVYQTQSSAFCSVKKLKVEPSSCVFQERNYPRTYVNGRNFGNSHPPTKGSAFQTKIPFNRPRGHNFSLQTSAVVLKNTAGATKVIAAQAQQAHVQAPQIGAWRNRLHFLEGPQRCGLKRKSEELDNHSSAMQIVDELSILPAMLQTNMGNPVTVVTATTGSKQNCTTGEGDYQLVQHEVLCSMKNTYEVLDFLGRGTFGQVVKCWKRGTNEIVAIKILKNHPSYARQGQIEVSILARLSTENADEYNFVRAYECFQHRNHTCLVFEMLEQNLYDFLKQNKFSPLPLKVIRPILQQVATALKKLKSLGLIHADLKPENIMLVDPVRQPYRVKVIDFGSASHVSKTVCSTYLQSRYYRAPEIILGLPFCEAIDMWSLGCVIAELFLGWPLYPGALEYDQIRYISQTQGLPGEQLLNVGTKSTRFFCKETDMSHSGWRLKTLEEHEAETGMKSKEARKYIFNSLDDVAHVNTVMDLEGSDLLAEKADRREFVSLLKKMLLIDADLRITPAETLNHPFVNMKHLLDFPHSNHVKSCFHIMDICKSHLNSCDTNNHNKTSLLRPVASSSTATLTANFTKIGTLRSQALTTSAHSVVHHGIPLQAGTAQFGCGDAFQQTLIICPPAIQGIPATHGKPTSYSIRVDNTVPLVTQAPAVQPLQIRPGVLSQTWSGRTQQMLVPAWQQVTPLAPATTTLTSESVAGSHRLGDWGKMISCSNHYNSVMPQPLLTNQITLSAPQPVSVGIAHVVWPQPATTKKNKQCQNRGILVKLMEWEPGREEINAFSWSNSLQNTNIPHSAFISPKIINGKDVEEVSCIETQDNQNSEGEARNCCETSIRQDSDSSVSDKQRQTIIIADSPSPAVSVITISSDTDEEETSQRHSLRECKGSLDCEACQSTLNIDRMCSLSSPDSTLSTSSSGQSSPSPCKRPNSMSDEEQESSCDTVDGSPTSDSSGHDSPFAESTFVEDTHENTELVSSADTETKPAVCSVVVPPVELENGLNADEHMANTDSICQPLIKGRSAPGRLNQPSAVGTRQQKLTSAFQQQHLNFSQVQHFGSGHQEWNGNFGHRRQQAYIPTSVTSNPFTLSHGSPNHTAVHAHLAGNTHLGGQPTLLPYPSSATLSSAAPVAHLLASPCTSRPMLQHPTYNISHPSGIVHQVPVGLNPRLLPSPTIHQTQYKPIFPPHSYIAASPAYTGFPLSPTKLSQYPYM
T4 sequence (Q8NEB9 whole entry): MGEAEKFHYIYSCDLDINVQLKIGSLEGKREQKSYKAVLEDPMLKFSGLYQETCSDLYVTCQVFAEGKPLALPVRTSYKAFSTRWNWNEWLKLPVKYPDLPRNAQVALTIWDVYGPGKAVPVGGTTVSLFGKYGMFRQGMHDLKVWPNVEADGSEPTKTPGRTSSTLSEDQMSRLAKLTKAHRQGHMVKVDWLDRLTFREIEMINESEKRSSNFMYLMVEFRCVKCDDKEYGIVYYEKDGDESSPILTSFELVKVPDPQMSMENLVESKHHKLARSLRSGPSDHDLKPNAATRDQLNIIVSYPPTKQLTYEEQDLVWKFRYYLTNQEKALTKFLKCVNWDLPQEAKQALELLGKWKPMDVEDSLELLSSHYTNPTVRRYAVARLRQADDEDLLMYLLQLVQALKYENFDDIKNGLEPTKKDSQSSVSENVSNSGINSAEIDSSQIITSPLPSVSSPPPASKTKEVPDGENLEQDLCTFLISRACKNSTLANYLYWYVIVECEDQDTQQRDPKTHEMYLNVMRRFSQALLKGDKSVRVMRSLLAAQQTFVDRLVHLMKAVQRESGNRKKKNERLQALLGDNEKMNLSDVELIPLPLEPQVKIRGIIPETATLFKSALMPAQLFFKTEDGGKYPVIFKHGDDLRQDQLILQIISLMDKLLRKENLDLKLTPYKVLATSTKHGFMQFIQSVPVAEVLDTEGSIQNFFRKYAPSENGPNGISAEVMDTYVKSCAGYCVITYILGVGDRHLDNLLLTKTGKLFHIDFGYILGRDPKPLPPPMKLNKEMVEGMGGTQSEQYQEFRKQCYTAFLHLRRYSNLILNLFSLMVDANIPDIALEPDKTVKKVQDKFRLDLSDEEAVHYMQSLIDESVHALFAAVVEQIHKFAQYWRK

CNc1nc(Nc2ccc(S(=O)(=O)N3CCC(N4CCOCC4)CC3)cc2OC)nc2[nH]cc(Cl)c12 [Compound 12, 5-chloro-N2-(2-methoxy-4-((4-morpholinopiperidin-1-yl)sulfonyl)phenyl)-N4-methyl-7H-pyrrolo[2,3-d]pyrimidine-2,4-diamine]
remaining binding at 1 µM [1]: 94%
remaining binding at 1 µM [2]: 64%
remaining binding at 1 µM [3]: 81%
remaining binding at 1 µM [4]: 62%
remaining binding at 1 µM [5]: 85%
remaining binding at 1 µM [6]: 72%
remaining binding at 1 µM [7]: 0.75%
remaining binding at 1 µM [8]: 95%
remaining binding at 1 µM [9]: 100%

CNc1nc(Nc2ccc(C(=O)N3CCC(N4CCOCC4)CC3)c3c2OCO3)nc2[nH]cc(Cl)c12 [Compound 75, (7-((5-chloro-4-(methylamino)-7H-pyrrolo[2,3-d]pyrimidin-2-yl)amino)benzo[d][1,3]dioxol-4-yl)(4-morpholinopiperidin-1-yl)methanone]
remaining binding at 1 µM [1]: 96%
remaining binding at 1 µM [2]: 68%
remaining binding at 1 µM [3]: 100%
remaining binding at 1 µM [4]: 69%
remaining binding at 1 µM [5]: 83%
remaining binding at 1 µM [6]: 59%
remaining binding at 1 µM [7]: 0.7%
remaining binding at 1 µM [8]: 82%
remaining binding at 1 µM [9]: 97%

CNc1nc(Nc2ccc(P3(=O)CCN(C4CCOCC4)CC3)cc2OC)nc2[nH]cc(Cl)c12 [Compound 77, 4-(4-((5-chloro-4-(methylamino)-7H-pyrrolo[2,3-d]pyrimidin-2-yl)amino)-3-methoxyphenyl)-1-(tetrahydro-2H-pyran-4-yl)-1,4-azaphosphinane 4-oxide]
remaining binding at 1 µM [1]: 90%
remaining binding at 1 µM [2]: 73%
remaining binding at 1 µM [3]: 100%
remaining binding at 1 µM [4]: 71%
remaining binding at 1 µM [5]: 84%
remaining binding at 1 µM [6]: 64%
remaining binding at 1 µM [7]: 1.2%
remaining binding at 1 µM [8]: 98%
remaining binding at 1 µM [9]: 100%
